Assay results as given in patent publication US20150118215A1, “Methods of Inhibiting Cell Proliferation” (The General Hospital Corporation, priority 2012, published 2015).
Entries after “also recorded” stand apart in the source; their conditions may differ.

How the values were obtained:
MTC cells [1] = assay: Cell population endocytic uptake assay (albumin-Alexa555, RITC-dextran) in MTC cells; assay type: cell-based; conditions: for effect on endocytic uptake of fluid phase marker RITC-dextran: control and peptide-stimulated conditions, inhibitors; for effect on uptake of albumin-Alexa555 via receptor-mediated (CDE) pathway: control non-stimulated conditions; for effect on uptake of albumin-Alexa555 via receptor-mediated (CDE) pathway / effect on uptake of albumin-Alexa555 via FITC-a2N1-17-TAT peptide-induced macropinocytosis (CIE) pathway: 1 μM bafilomycin A1, 100 μM DMA or 100 μM EIPA; for effect on uptake of albumin-Alexa555 via FITC-a2N1-17-TAT peptide-induced macropinocytosis (CIE) pathway: peptide-stimulated
Protocol: (§1) Cell Population Albumin Endocytic Uptake Assay—
(§2) Quantitative endocytic uptake of albumin-Alexa555 and RITC-dextran was performed using a cell population assay as previously described (Hurtado-Lorenzo et al. (Nat Cell Biol 8, 124-136, 2006)). HeLa cells were seeded on 48-well plates (5,000 cells/well) and grown for 5 days. MTC cells were seeded on 48-well plates (5,000 cells/well) and grown for 7 days until polarized, followed by starvation for 2 days in serum-free DMEM medium. Cells were incubated in 200 μl of Ringer buffer (pH 7.4) containing either 200 μg/ml albumin-Alexa555 or 500 μg/ml RITC-dextran in the presence of 5 μM FITC-TAT or 5 μM FITC-a2N1-17-TAT peptides. As indicated, cells were also treated with 1 μM bafilomycin A1, 1 mM amiloride, 100 μM DMA or 100 μM EIPA. At the indicated times, cells were washed with Ringer's buffer (pH 6.0) for three times and were permeabilized in 20 mM MOPS (pH 7.0), 0.1% Triton X-100. The fluorescence was measured using a DTX 880 Microplate Reader (Beckman) with 535-nm excitation and 595-nm emission filters (FIGS. 7, 8, and 12).

MTC cells [2] = assay: Cell population albumin degradation assay (DQ-Red BSA); assay type: cell-based; conditions: 5 μM peptides, 1 μM bafilomycin A1, 20 mM NH4Cl, 1 mM amiloride, 100 μM DMA
Protocol: Cell Population Albumin Degradation Assay—
Quantitative protein degradation assay was performed using DQ-Red BSA. MTC cells were seeded on 48-well plate (5,000 cells/well) and grown for 7 days until being polarized, followed by starvation for two days in serum-free DMEM medium. Cells were washed with Ringer buffer (pH 6.0) for three times and with Ringer buffer (pH 7.4) once. Cells were then incubated in 200 μl of Ringer buffer (pH 7.4) containing as indicated: 5 μM FITC-TAT, 5 μM FITC-a2N1-17-TAT peptide, 1 μM baflomycin A1, 20 mM NH4Cl, 1 mM amiloride or 100 μM DMA. DQ-Red BSA was added to a final concentration of 10 μg/ml. The fluorescence was estimated using a DTX 880 Microplate Reader (Beckman) with 590-nm excitation and 625-nm emission filters every 3 minutes. The 48-well plate was kept at 37° C. in the microplate reader (FIG. 11).

MTC cells [3] = assay: Pulse-chase live time-lapse confocal imaging and tracking of endocytic vesicles; assay type: cell-based
Protocol: Pulse-Chase Experiments and Live Time-Lapse Confocal Fluorescence Imaging—
Live cell imaging of MTC cells was performed using time-lapse confocal fluorescent imaging as previously described (Hurtado-Lorenzo et al. (Nat Cell Biol 8, 124-136, 2006)). MTC cells were seeded on FluoroDish (World Precision Instruments, Inc) (25,000-100,000 cells/dish) and grown to about 50% confluency. To label the organelles of the endocytic pathway in vivo, MTC cells were transfected using lipofectamine 2000 (Invitrogen) with 5 μg of the plasmids: i) EEA1-GFP or Rab5-EGFP (early endosomal markers); ii) Rab7-EGFP (late endosomal marker), and iii) LAMP1-mGFP (lysosomal marker). After two days, the cells were washed for three times with Ringer's buffer (pH 6.0) followed by one wash with Ringer's buffer (pH 7.4) at 37° C., and i) pulsed for 15 min with 5 μM FITC-TAT and 100 μg/ml albumin-Alexa594: ii) pulsed for 15 min with 5 μM FITC-a2N1-17-TAT and 100 μg/ml albumin-Alexa594; or iii) pre-incubated in the presence or absence of 1 μM bafilomycin A1 and pulsed with 100 μg/ml albumin-Alexa594. The MTC cells transfected with EEA1-GFP, Rab5-EGFP, Rab7-EGFP and LAMP1-GFP plasmids were pulsed for 6-15 min with 5 μM of CTMR-a2N1-17-TAT peptide. After the pulse, cells were washed either by perfusion or rinsing with Ringer's buffer (pH 7.4) and incubated in an environmental chamber (37° C., 5% CO2) coupled to a Nikon inverted microscope. Videos were acquired with a spinning-disc confocal imaging system Ultra View RS (Perkin Elmer). FIGS. 9 and 10 show frames from these movies.
Image Analysis and Tracking of Endocytic Vesicles—
Dynamics of the movement of early endosomes, late endosomes and lysosomes labeled with either: i) albumin-Alexa594; ii) FITC-a2N1-17-TAT and albumin-Alexa594; or iii) CTMR-a2N1-17-TAT and transfected EEA1-GFP markers were tracked with Particle Tracker PlugIn (Merkulova et al. (Biochim BiophysActa 1797, 1398-1409, 2010)) for ImageJ (NIH). The trajectories that appeared for over 30 frames were further analyzed. The two-dimensional displacement between consecutive frames was calculated from changes in X and Y position coordinates and speed was calculated by dividing the displacement by time. The two-dimensional displacements between all possible combinations of frames were also calculated and the longest distance was defined as “maximum distance” of the trajectory. The speeds were averaged for 11 consecutive frames and the fastest speed was defined as “maximum speed” of the trajectory.

cytohesin-2 = target: T1, cytohesin-2 (Homo sapiens, UniProt Q99418); assay: Radiolabel-based GEF-activity assay ([35S]-GTPγS binding) of full-length cytohesin-2 with myr-Arf1 or myr-Arf6; assay type: biochemical
T1 construct: steady-state enzymatic GEF-activity analysis of full-length cytohesin-2 or Sec7 domain with Arf1 and Arf6; made in house; host or cells: E. coli BL21DE3
T1 sequence (Q99418 1-400): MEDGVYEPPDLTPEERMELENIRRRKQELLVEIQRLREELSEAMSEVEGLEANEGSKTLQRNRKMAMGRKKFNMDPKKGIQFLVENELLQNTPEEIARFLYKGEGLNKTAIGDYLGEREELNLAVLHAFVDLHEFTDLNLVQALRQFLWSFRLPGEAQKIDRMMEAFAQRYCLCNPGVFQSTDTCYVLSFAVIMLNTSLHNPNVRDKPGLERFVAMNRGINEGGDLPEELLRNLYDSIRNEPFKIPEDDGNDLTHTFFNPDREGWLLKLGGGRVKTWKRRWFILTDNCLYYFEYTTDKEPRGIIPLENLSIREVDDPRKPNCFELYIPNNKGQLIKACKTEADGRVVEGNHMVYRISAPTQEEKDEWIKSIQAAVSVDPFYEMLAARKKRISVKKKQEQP
Protocol: Two assays were used to determine the GDP/GTP-exchange activity of both full-length cytohesin-2 and Sec7 domain.
a) Radiolabel-Based Assay.
The lipids were dissolved in chloroform. […] Proteins were trapped on nitrocellulose filters.
To test the potential signaling between V-ATPase and cytohesin-2/Arf GTP-binding proteins, a GEF-activity assay was established for cytohesin-2 (wt) and myristoylated myr-Arf6 (wt) and myr-Arf1 (wt) GTP-binding proteins (FIG. 2A). Human Arf1 was co-expressed with yeast N-myristoyltransferase in E. coli BL21/DE3 strain. Recombinant myr-Arf1 was purified from the E. coli lysate (A1) using an AKTApurifier equipped with HiTrapQ, Superdex200 columns (A2), and Phenyl Sepharose HP column (A3). Human Arf6 was also co-expressed with yeast N-myristoyltransferase in E. coli BL21/DE3 strain. Recombinant myr-Arf6 was extracted from insoluble fraction using Triton X-100 (B1). The extract was precipitated by 35% ammonium sulfate and myr-Arf6 purified with HiTrapQ column (B2). […] Several soluble, cell permeable and fluorescently labeled a2N1-17 derived peptides were synthesized, which were used in the current GEF-activity and structural studies in vitro.

HeLa cells = assay: Cell population endocytic uptake assay (albumin-Alexa555, RITC-dextran) in HeLa cells; assay type: cell-based; conditions: 5 μM peptide
Protocol: as §1, §2

Human NSCLC A549 cells = assay: Cell proliferation assays (MTT, direct cell counting); assay type: cell-based; conditions: A549, wild-type EGFR, KRas-G12S; three days treatment
Protocol: Cell Proliferation Assays—
First, MTT proliferation assay was carried out using cell growth determination kit according to manufacturer instructions (Sigma). Human NSCLC A549 cells which are expressing wild-type EGFR with KRas-G12S activation mutation were studied in these experiments. […] Medium was changed daily for three days, and cells were stained with MTT and DAPI when indicated.
Second, direct cells counting assays were also performed as follows. Microscopic images of 0.317 mm^2 area each well were acquired for MTT stained cells and cells were counted using ImageJ (NIH). […] Alternatively, the cells were stained with DAPI and microscopic images of whole wells were acquired using DeltaVision system (Applied Precision). Cells were counted using Particle Tracker PlugIn for ImageJ as above (FIG. 13).

[4] = target: T2, Sec7-domain of cytohesin-2 (Homo sapiens, UniProt Q99418); conditions: Biacore; a2N(1-17) peptide and Sec7-domain; read-out: dissociation constant KD; cited from earlier work
T2 sequence (Q99418 72-201 limits assumed): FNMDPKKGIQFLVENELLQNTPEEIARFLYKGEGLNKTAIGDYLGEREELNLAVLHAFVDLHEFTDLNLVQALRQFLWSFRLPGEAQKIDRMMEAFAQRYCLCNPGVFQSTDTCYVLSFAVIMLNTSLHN

[5] = EEA1-EGFP positive early endosomes, peptide in cytosol of MTC cells, 5 μM

CN(C)c1nc(N)c(C(=O)N=C(N)N)nc1Cl.Cl [DMA, 5-N,N-dimethylamiloride hydrochloride]
effect on endocytic uptake of fluid phase marker RITC-dextran (MTC cells [1]): not modulated
effect on uptake of albumin-Alexa555 via receptor-mediated (CDE) pathway (MTC cells [1]; hydrochloride): does not affect; also recorded: does not modulate
effect on uptake of albumin-Alexa555 via FITC-a2N1-17-TAT peptide-induced macropinocytosis (CIE) pathway (MTC cells [1]; hydrochloride): could inhibit; also recorded: strongly inhibits
effect on degradation of DQ-Red-BSA in endosomal/lysosomal compartments (MTC cells [2]; hydrochloride): significantly stimulated; also recorded: increased

CCN(c1nc(N)c(C(=O)N=C(N)N)nc1Cl)C(C)C [EIPA, 5-(N-ethyl-N-isopropyl)amiloride]
effect on uptake of albumin-Alexa555 via receptor-mediated (CDE) pathway (MTC cells [1]): does not affect
effect on uptake of albumin-Alexa555 via FITC-a2N1-17-TAT peptide-induced macropinocytosis (CIE) pathway (MTC cells [1]): could inhibit

Cl.N [NH4Cl]
effect on degradation of DQ-Red-BSA in endosomal/lysosomal compartments (MTC cells [2]): strongly inhibited

N=C(N)NC(=O)c1nc(Cl)c(N)nc1N [amiloride]
effect on degradation of DQ-Red-BSA in endosomal/lysosomal compartments (MTC cells [2]): significantly stimulated

CO/C1=C\C(C)=C\[C@@H](C)[C@@H](O)[C@@H](C)C/C(C)=C/C=C/[C@H](OC)[C@@H]([C@@H](C)[C@@H](O)[C@H](C)[C@@]2(O)C[C@@H](O)[C@H](C)[C@@H](C(C)C)O2)OC1=O [bafilomycin A1]
effect on moving distance of albumin-Alexa594 positive vesicles (MTC cells [3]; MTC cells, 1 μM bafilomycin A1): time-dependent inhibitory effect
inhibitory effect on speed of albumin-Alexa594 positive vesicles (MTC cells [3]; MTC cells, late stages of trafficking, 1 μM bafilomycin A1): 20%
effect on endocytic uptake of fluid phase marker RITC-dextran (MTC cells [1]): not modulated
effect on uptake of albumin-Alexa555 via receptor-mediated (CDE) pathway (MTC cells [1]): inhibitory action; also recorded: inhibits
effect on uptake of albumin-Alexa555 via FITC-a2N1-17-TAT peptide-induced macropinocytosis (CIE) pathway (MTC cells [1]): no effect; also recorded: does not modulate
effect on degradation of DQ-Red-BSA in endosomal/lysosomal compartments (MTC cells [2]): strongly inhibited

CTMR- MGSLFRSESMCLAQLFL - YGRKKRRQRRR [CTMR-a2N1-17-TAT]
moving distance of early endosomes (MTC cells [3]; [5]): significant increase
moving speed of early endosomes (MTC cells [3]; [5]): significant increase

FITC-TAT: biologically inactive control peptide, FITC-labelled TAT sequence (YGRKKRRQRRR; SEQ ID NO:33); also purchased from Anaspec
potently inhibits the enzymatic activity of cytohesin-2 (in words) (cytohesin-2; with both myr-Arf6 and myr-Arf1 as substrate): not
effect on endocytic uptake of albumin-Alexa555 (in words) (MTC cells [1]; 5 μM peptide): no effect and not
effect on uptake of fluid-phase marker RITC-dextran (MTC cells [1]; 5 μM peptide): not
effect on uptake of RITC-dextran (HeLa cells): not
effect on uptake of albumin-Alexa555 (HeLa cells): not
effect on degradation of DQ-Red-BSA in endosomal/lysosomal compartments (MTC cells [2]): did not have any effect; also recorded: do not affect

MASVFRSEEMCLSQVFL [a4N1-17]
inhibition of proliferation of human lung cancer A549 cells (Human NSCLC A549 cells): very potent inhibitors

MGELFRSEEMTLAQLFL [a1N1-17]
inhibition of proliferation of human lung cancer A549 cells (Human NSCLC A549 cells): very potent inhibitors

MGSLFRSESMCLAQLFL [a2N1-17]
more potent inhibitor of cytohesin-2 than SecinH3 (cytohesin-2; relative to SecinH3): up to 150 times
inhibition of proliferation of human lung cancer A549 cells (Human NSCLC A549 cells): very potent inhibitors

MGSLFRSETMCLAQLFL [a2N(1-17)]
Kd [4]: 344 nM

MGSMFRSEEVALVQLLL [a3N1-17]
inhibition of proliferation of human lung cancer A549 cells (Human NSCLC A549 cells): very potent inhibitors
